Results as given in patent publication US20240060072A1, “METHOD AND COMPOSITION FOR TREATING NON-ALCOHOLIC FATTY LIVER DISEASE, ASSOCIATED CONDITIONS AND SYMPTOMS” (THE HONG KONG POLYTECHNIC UNIVERSITY, priority 2022, published 2024).

Experiments:
[1] = system: mouse SCD1 promoter; test: SCD1 promoter luciferase reporter assay and RT-qPCR in HEK293 cells; type: cell-based; settings: DHEA 100 μM for 24 h
Procedure: In vitro luciferase reporter assay was performed to further validate the expression of SCD1 is transcriptional regulated by GPR110. Plasmid harbouring luciferase gene driven by the mouse SCD1 promoter (−2000 to +100) was constructed to transfect into HEK293 cells. Typically, HEK293 cells were cultured in DMEM supplemented with 10% FBS, 100 U/ml penicillin and 100 μg/ml streptomycin at 37° C. and 5% CO2, and then seeded in 6-well plates followed by transfection with pGL3-SCD1 promoter and adenoviral vector expressing either GPR110 (ADV-GPR110) or GFP (ADV-GFP) by using the transfection reagent (#E4981, Promega, WI, USA). There was no change of luciferase activity of pGL3- SCD1 promoter-luciferase transfected HEK293 cells under the treatment of GPR110 ligand DHEA, unless the HEK293 cells were pre-infected with adenovirus overexpressing GPR110 (ADV-GPR110; FIG. 9C). The overexpression of GPR110 in ADV-GPR110 infected cells and inductions of SCD1 mRNA expression by treatment of DHEA were also validated by RT-qPCR (FIG. 9D). The changes in hepatocyte lipid profiles by the expression level of GPR110 and SCD1 were also checked. In agreement with the in vivo data, the overexpression of GPR110 increased the intracellular CHO (FIG. 9E), TG (FIG. 9F) and FFA (FIG. 9G). […] In summary, the transcription level of SCD1 is regulated by GPR110. […]

[2] = system: HFD-fed mice; test: CCl4 or STZ treatment of HFD-fed mice: hepatic mRNA by RT-qPCR; type: in vivo, mouse; settings: compared to untreated HFD-fed mice
[3] = system: SCD1; test: SCD1 inhibitor MK8245 in HFD-fed rAAV-GPR110 mice: circulating lipids, liver enzymes, hepatic steatosis
Procedure: In general, 8-week-old C57BL/6J male mice were housed in pathogen-free conditions at controlled temperature with a 12-hour light-dark cycle and access to food and water ad libitum. […] Briefly, mice were tail vein injected with 3×10^11 rAAV2/8 vector harboring either green fluorescent protein (GFP) or GPR110. […] All measurements were carried out in a randomized order.
Typically, for plasma and hepatic lipid level, serum levels of triglyceride (TG) and total cholesterol (CHO) were measured using commercial kit (Biosino, biotechnology and science INC, China) according to the manufacturer's instructions. Hepatic lipids were extracted using Folch methodology and liver extract was dissolved in ethanol for TG and CHO measurements. Both serum and hepatic levels of free fatty acid (FFA) were measured using commercial kit (Solarbio, China).
Typically, for liver function assay, the alanine aminotransferase (ALT) and aspartate aminotransferase (AST) levels were measured in serum using commercial kits (Stanbio, USA).

[4] = system: SCD1; test: SCD1 inhibitor MK8245 in HFD-fed rAAV-GPR110 mice: GPR110 expression, body weight, glucose homeostasis; type: in vivo, mouse
Procedure: FIG. 10A schematically depicts a scheme of different treatments to a mouse model according to certain embodiments, where eight-week-old male C57BL/6J mice were infected with either 3×10^11 copies of rAAV encoding GPR110 (rAAV-GPR110) via i.v. or control (rAAV-GFP) via i.v. after 8-week HFD feeding, and then 2 weeks after infection treated with SCD1 inhibitor, MK8245, at 10 mg/kg/week via oral administration (p.o.) or inhibitor vehicle (inhibitor-Veh.) via p.o.;
To evaluate the impacts of high hepatic GPR110 level on liver metabolism, GPR110 was overexpressed in the hepatocytes of HFD-fed mice by liver-directed rAAV/thyroxine binding globulin (TBG)-mediated gene expression system (FIGS. 2A and 3A). In general, 8-week-old C57BL/6J male mice were housed in pathogen-free conditions at controlled temperature with a 12-hour light-dark cycle and access to food and water ad libitum. The 8-week-old male mice were divided into two groups and fed with high-fat diet (HFD, 20% protein, 45% fat, 35% carbohydrates, Research Diets Inc., New Brunswick, NJ, USA), or standard chow diet (STC, 18.3% protein, 10.2% fat, 71.5% carbohydrates, Research Diet Inc., New Brunswick, NJ, USA) in some other examples, for 8 weeks. The recombinant adeno-associated virus vector rAAV2/8 transduction was conducted as described previously (Lee et al, 2016; Cheng et al, 2022). Briefly, mice were tail vein injected with 3×10^11 rAAV2/8 vector harboring either green fluorescent protein (GFP) or GPR110. In other examples, for antisense oligonucleotide (ASO) delivery, validated ASOs against mouse GPR110 were provided by Ionis Pharmaceuticals and injected subcutaneously once a week at 5 mg/kg body weight to the mice. In some other examples, for SCD1 inhibitor delivery, MK-8245 (MedChemExpress, NJ, USA) was gavage at 10 mg/kg once a week. All measurements were carried out in a randomized order. Typically, glucose profile measurement was performed in terms of the blood glucose and insulin level by collecting the blood samples from the tip of the tail of the mouse models using a glucometer. For the glucose tolerance test (GTT), insulin tolerance test (ITT) and pyruvate tolerance test (PTT), mice were fasted overnight prior to intraperitoneal injection of glucose (1 g/kg body weight (BW)) (Sigma, St. Louis, MO), 0.75 U/kg BW insulin (Novolin R, Novo Nordisk, Bagsvaerd, Denmark) or 1 g/kg BW pyruvate (Sigma, St. Louis, MO). Blood glucose levels were measured from the tip of tail vein at 15, 30, 60, 90 and 120 minutes after injection.

[5] = HFD-fed rAAV-GPR110 mice, 10 mg/kg/week p.o.
[6] = compared to the rAAV-GPR110 littermates
[7] = HFD-fed rAAV-GPR110 mice, vs untreated littermates
[8] = rAAV-GPR110 mice, chronic treatment for 11 weeks, 10 mg/kg/week p.o.

## CC/C=C\C/C=C\C/C=C\C/C=C\C/C=C\C/C=C\CCC(=O)NCCO [DHEA]
[1]; ADV-GPR110 infected HEK293 cells, RT-qPCR
  SCD1 mRNA expression: inductions
[1]; HEK293 cells not pre-infected with ADV-GPR110
  luciferase activity of pGL3-SCD1 promoter-luciferase: no change

## CN(N=O)C(=O)N[C@@H]1[C@@H](O)[C@H](O)[C@@H](CO)O[C@@H]1O [STZ]
[2]
  SCD1 mRNA expression level: significantly higher
  expression of hepatic GPR110 mRNA: significantly increased

## ClC(Cl)(Cl)Cl [CCl4]
[2]
  SCD1 mRNA expression level: significantly higher
  expression of hepatic GPR110 mRNA: significantly increased

## O=C(O)Cn1nnc(-c2cc(N3CCC(Oc4cc(F)ccc4Br)CC3)no2)n1 [MK8245, 5-[3-[4-(2-bromo-5-fluorophenoxy)-1-piperidinyl]-5-isoxazolyl]-2H-tetrazole-2-acetic acid]
[3]; HFD-fed rAAV-GPR110 mice
  HDL: relatively higher
  LDL level: no differences detected
  circulating FFA level: no change
  severity of fibrosis: partially reduced
[3]; [5]
  circulating CHO level: lowered
  circulating TG level: lowered
[3]; [6]
  ALT level: alleviated
  AST level: alleviated
[4]; HFD-fed rAAV-GPR110 mice, 10 mg/kg/week p.o., vs untreated littermates
  body weight: lowered
[4]; [7]
  HOMR-IR: improved
  fasting glucose level: improved
  insulin sensitivity by ITT: no change
  performance in GTT: improved
  performance in PTT: improved
[4]; [8]
  expression of GPR110 mRNA: did not affect
  expression of GPR110 protein: did not affect
